In the supplement of paper PMC13380429:

Experiments:
[1] = system: A549-ACE2 infected with SARS-CoV-2; assay: cell count relative to DMSO; higher = less toxic; conditions: 24 h
[2] = system: Caco-2; assay: cell viability relative to DMSO; higher = less toxic; conditions: 72 h
[3] = system: Calu-3; assay: as above; conditions: 72 h
[4] = system: HepG2; assay: as above; conditions: 72 h
[5] = system: U2OS; assay: as above; conditions: 72 h
[6] = system: Vero E6; assay: as above; conditions: 72 h
[7] = system: A549-ACE2 infected with SARS-CoV-2; assay: SARS-CoV-2 infection rate relative to DMSO; higher = more infection; conditions: 24 h
[8] = system: A549-ACE2; assay: phospholipidosis EC50; higher = less potent phospholipidosis inducer
[9] = system: A549-ACE2; assay: drug-induced phospholipidosis relative to tamoxifen; higher = more phospholipidosis
[10] = system: A549-ACE2 infected with SARS-CoV-2; assay: morphology score (similarity to uninfected cells); higher = more like uninfected cells; conditions: 24 h
[11] = system: Caco-2; assay: relative viability EC50 (midpoint between 100% and the lowest measured viability); higher = less toxic; conditions: 72 h
[12] = system: Calu-3; assay: as above; conditions: 72 h
[13] = system: HepG2; assay: as above; conditions: 72 h
[14] = system: U2OS; assay: as above; conditions: 72 h
[15] = system: Vero E6; assay: as above; conditions: 72 h
[16] = system: Caco-2; assay: drug sensitivity score (DSS) for viability; higher = more toxic; extreme values may be limits of the assay; conditions: 72 h
[17] = system: Calu-3; assay: as above; conditions: 72 h
[18] = system: HepG2; assay: as above; conditions: 72 h
[19] = system: U2OS; assay: as above; conditions: 72 h
[20] = system: Vero E6; assay: as above; conditions: 72 h

CN1[C@@H]2CC[C@H]1C[C@@H](OC(c1ccccc1)c1ccccc1)C2 [benztropine-mesylate]
Conditions	SARS-CoV-2 infection rate [%]	cell count [%]	cell viability [%]	morphology score	phospholipidosis EC50 [µM]
[1], 0.3 µM	–	98	–	–	–
[1], 3 µM	–	112	–	–	–
[1], 10 µM	–	123	–	–	–
[1], 30 µM	–	120	–	–	–
[2], 1 nM	–	–	96.2	–	–
[2], 10 nM	–	–	98	–	–
[2], 100 nM	–	–	94.5	–	–
[2], 1000 nM	–	–	103	–	–
[2], 10000 nM	–	–	93	–	–
[3], 1 nM	–	–	101	–	–
[3], 10 nM	–	–	101	–	–
[3], 100 nM	–	–	109	–	–
[3], 1000 nM	–	–	116	–	–
[3], 10000 nM	–	–	94.2	–	–
[4], 1 nM	–	–	103	–	–
[4], 10 nM	–	–	102	–	–
[4], 100 nM	–	–	103	–	–
[4], 1000 nM	–	–	89	–	–
[4], 10000 nM	–	–	92.1	–	–
[5], 1 nM	–	–	95.2	–	–
[5], 10 nM	–	–	98	–	–
[5], 100 nM	–	–	95.5	–	–
[5], 1000 nM	–	–	98.3	–	–
[5], 10000 nM	–	–	92.4	–	–
[6], 1 nM	–	–	99.4	–	–
[6], 10 nM	–	–	104	–	–
[6], 100 nM	–	–	103	–	–
[6], 1000 nM	–	–	97.5	–	–
[6], 10000 nM	–	–	93.8	–	–
[7], 0.3 µM	106	–	–	–	–
[7], 3 µM	60	–	–	–	–
[7], 10 µM	33	–	–	–	–
[7], 30 µM	12	–	–	–	–
[8], 24 h	–	–	–	–	8.44
[8], 48 h	–	–	–	–	9.6
[8], 72 h	–	–	–	–	9.86
[10], 0.3 µM	–	–	–	-0.15	–
[10], 3 µM	–	–	–	0.67	–
[10], 10 µM	–	–	–	0.82	–
[10], 30 µM	–	–	–	0.71	–

drug-induced phospholipidosis [%], [9]
Conditions	0.3 µM	0.833333 µM	3.33333 µM	6.66667 µM	10 µM	30 µM
24 h	2.39	-1.85	12.3	31.1	63.2	94.2
48 h	3.49	2.96	8.82	25.8	58.8	103
72 h	4.91	3.92	10.9	27.1	59.7	107

Conditions	drug sensitivity score	relative viability EC50 [µM]
[11]	–	> 10
[12]	–	> 10
[13]	–	> 10
[14]	–	> 10
[15]	–	> 10
[16]	0	–
[17]	0	–
[18]	0.2	–
[19]	0	–
[20]	0	–
